Results: PubChem BioAssay AID1949 (Southern Research Institute, 2009)
Values after ≈ are worked out from the molar mass of the structure shown. Inconclusive results are not listed. Active and inactive are the calls of the source. No rule for the calls is given here.

test system: M. tuberculosis H37Rv growth inhibition; assay: Mycobacterium tuberculosis H37Rv growth inhibition, cell based, confirmatory dose response (AID 1949);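 also: bacteria grown 7 days with compound before Alamar blue readout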

Going from `Cc1cccc(OCCCn2cnc3cc(C)c(C)cc32)c1` to `Cc1cc(C)c(OCCCCNCc2ccccc2)c(Cl)c1`, the IC50 rises from 1.84 µg/mL (≈ 6.25 µM) to 5.18 µg/mL (≈ 16.3 µM) (2.8-fold).

First: N#Cc1c(NC(=S)NC(=O)C2CCCC2)sc2c1CCCC2
Second: Nc1c2c(nc3sc4c(c13)CCCC4)CCCC2
The IC50 of the first is 47-fold higher: 28.4 µg/mL (≈ 85.2 µM) for the first, 0.6 µg/mL (≈ 2.32 µM) for the second.

First: O=c1cc(Cc2ccccc2)nc2c(-c3ccccc3)c[nH]n12
Second: Fc1ccc(-c2nn(-c3ccccc3)cc2CNCc2ccccc2)cc1
The IC50 of the first is 16-fold lower: 0.36 µg/mL (≈ 1.19 µM) for the first, 5.86 µg/mL (≈ 16.4 µM) for the second.

First: CC(C)OC(=O)COc1cc(O)c2c(=O)cc(-c3ccccc3)oc2c1
Second: CCOC(=O)C(C)Oc1ccc2c(=O)c(Oc3ccccc3Cl)coc2c1 (stereo not given)
The IC50 of the first is 2.2-fold higher: 19.6 µg/mL (≈ 55.2 µM) for the first, 8.87 µg/mL (≈ 22.8 µM) for the second.

Compared with `Clc1ccc(OCCn2ccnc2)cc1Cl`, `Cc1cc(OCCn2ccnc2)ccc1Cl` is 2.7-fold lower in IC50: 7.53 µg/mL (≈ 29.3 µM) for the first, 2.77 µg/mL (≈ 11.7 µM) for the second.

First: COc1cccc(OCCN2CCN(c3ncnc4sc5c(c34)CCCC5)CC2)c1
Second: COc1ccc(C(=O)CCN2CCN(c3ccccc3F)CC2)cc1
The IC50 of the first is 5.1-fold higher: 29 µg/mL (≈ 68.2 µM) for the first, 5.64 µg/mL (≈ 16.5 µM) for the second.

Compared with `CCCC(=O)NC(=S)Nc1ccc(N2CCN(C(=O)c3cccs3)CC2)c(Cl)c1`, `CN(C)S(=O)(=O)c1ccc(NC(=S)NC(=O)CCCOc2ccc(Cl)cc2Cl)cc1` is 8.8-fold higher in IC50: 0.61 µg/mL (≈ 1.35 µM) for the first, 5.38 µg/mL (≈ 11 µM) for the second.

First: O=[N+]([O-])/C=C/c1c[nH]c2ccc(Br)cc12
Second: C#CCOc1c(Br)cc(/C=C/[N+](=O)[O-])cc1OC
The IC50 of the first is 4.4-fold lower: 8.61 µg/mL (≈ 32.2 µM) for the first, 38.2 µg/mL (≈ 122 µM) for the second.

Going from `CCn1c(-c2ccco2)nc2ccccc21` to `CCCc1nc2ccccc2n1CC(O)COc1ccc(Br)cc1` (stereo not given), the IC50 rises from 2.39 µg/mL (≈ 11.3 µM) to 4.08 µg/mL (≈ 10.5 µM) (1.7-fold).

First: Cc1cccnc1NC(=S)Nc1ccc(Cl)c(Cl)c1
Second: O=[N+]([O-])c1ccc(NC(=S)NCc2ccc(Cl)c(Cl)c2)cc1
The IC50 of the first is 4.5-fold higher: 8.34 µg/mL (≈ 26.7 µM) for the first, 1.84 µg/mL (≈ 5.17 µM) for the second.

Going from `CCOC(=O)CSC1=C(C#N)C(c2ccccc2[N+](=O)[O-])C(C(C)=O)=C(C)N1` (stereo not given) to `CC(=O)Oc1c(/C=C(\C#N)C(N)=O)[nH]c2ccccc12`, the IC50 rises from 1.41 µg/mL (≈ 3.51 µM) to 5.98 µg/mL (≈ 22.2 µM) (4.2-fold).

First: CN(C)c1ccc(Nc2nc(-c3ccc(O)cc3O)cs2)cc1
Second: Cc1ccc(-c2csc(Nc3ccc(S(N)(=O)=O)cc3)n2)cc1
The IC50 of the first is 1.6-fold lower: 1.54 µg/mL (≈ 4.7 µM) for the first, 2.52 µg/mL (≈ 7.29 µM) for the second.

`COC(=O)COc1ccc(NC(=O)COc2ccc(C)cc2C)cc1` and `CCOC(=O)COc1ccc(C(=O)Nc2ccc(F)cc2)cc1` cannot be ordered by IC50: under 0.1 µg/mL for the first, under 0.1 µg/mL for the second.

First: CCOC(=O)COc1ccc(S(=O)(=O)Nc2cccc(SC)c2)cc1
Second: COc1ccc(C(=O)CCNc2cccc(C)c2)cc1
The IC50 of the first is 2.3-fold lower: 3.69 µg/mL (≈ 9.67 µM) for the first, 8.33 µg/mL (≈ 30.9 µM) for the second.

Going from `O=C(/C=C/c1ccccc1OC(=O)c1cccnc1)c1ccc(Cl)cc1` to `O=C(NC(=S)N1CCN(C/C=C/c2ccccc2)CC1)c1ccc(Cl)cc1`, the IC50 falls from 5.61 µg/mL (≈ 15.4 µM) to 0.39 µg/mL (≈ 0.975 µM) (14-fold).

Compared with `CCN(c1ccccc1)c1ccc([N+](=O)[O-])c2nonc12`, `O=c1cc(-c2ccccc2)[nH]n1-c1ccc([N+](=O)[O-])cc1` is 64-fold higher in IC50: 0.17 µg/mL (≈ 0.598 µM) for the first, 10.8 µg/mL (≈ 38.5 µM) for the second.

`Cc1c(Cl)c(C(F)(F)F)nn1CCCNC(=S)NCc1ccc(Cl)cc1` and `O=C(NCCCN1CCN(c2ccc(Cl)cc2)CC1)Nc1ccc(F)cc1` are within 1.5-fold of each other in IC50: 11.2 µg/mL (≈ 26.2 µM) for the first, 9.16 µg/mL (≈ 23.4 µM) for the second.

First: O=[N+]([O-])c1cccc(S(=O)(=O)Nc2cc(Br)c(O)c3ccccc23)c1
Second: Cc1cccc2sc(NC(=O)c3ccc([N+](=O)[O-])cc3Cl)nc12
The IC50 of the first is 3.6-fold lower: 5.32 µg/mL (≈ 12.6 µM) for the first, 19.4 µg/mL (≈ 55.8 µM) for the second.

Compared with `O=C(Cc1ccc(Cl)cc1)Nc1nc2ccc(Cl)cc2s1`, `O=C(Nc1ccc(Cl)c(Cl)c1)c1ccc(Cl)cc1Cl` is 1.6-fold higher in IC50: 3.22 µg/mL (≈ 9.55 µM) for the first, 5.19 µg/mL (≈ 15.5 µM) for the second.

`CCOc1ccccc1C(=O)Nc1ccccc1O` and `CCc1cccc(NC(=O)c2ccc3ccccc3n2)c1` are within 1.5-fold of each other in IC50: 8.93 µg/mL (≈ 34.7 µM) for the first, 11.4 µg/mL (≈ 41.1 µM) for the second.

Going from `CN1CCN(C(=S)NC(=O)c2ccc(-c3ccccc3)cc2)CC1` to `CSc1nsc(SCC(=O)N2CCN(c3ccccc3)CC2)n1`, the IC50 falls from 1.04 µg/mL (≈ 3.06 µM) to 0.35 µg/mL (≈ 0.955 µM) (3-fold).

`Cc1ccc(Nc2ccc(-n3ccnc3)nn2)cc1Cl` and `CN(C)c1ccc(NC(=O)c2ccncc2)cc1` are within 1.5-fold of each other in IC50: 2.67 µg/mL (≈ 9.34 µM) for the first, 2.89 µg/mL (≈ 12 µM) for the second.

Going from `O=C(CCN1CCCCCC1)c1ccc(Cl)cc1` to `O=C(COc1ccc(Cl)cc1)NCCC12CC3CC(CC(C3)C1)C2`, the IC50 rises from 22.7 µg/mL (≈ 85.5 µM) to 43.5 µg/mL (≈ 125 µM) (1.9-fold).

`CC1=NN(C(=S)Cc2ccccc2)C(C)(O)C1` (stereo not given) and `CCOc1cc(CNCc2ccccc2OCc2ccccc2)cc(Cl)c1OCC` are within 1.5-fold of each other in IC50: 2.79 µg/mL (≈ 11.2 µM) for the first, 1.94 µg/mL (≈ 4.55 µM) for the second.

Compared with `O=C(Nc1nc(SCc2ccc(F)cc2)ns1)c1cc(F)c(F)cc1Cl`, `CN(C)CCSc1nc(-c2cccs2)cc(-c2ccc(F)cc2)c1C#N` is 2.2-fold higher in IC50: 2.35 µg/mL (≈ 5.65 µM) for the first, 5.23 µg/mL (≈ 13.6 µM) for the second.

Going from `Cc1cc(C)c(-n2c(O)c(/C=C3\C=CC=N3)c(=O)[nH]c2=O)c(C)c1` to `Cc1cc(-n2c(C)cc(/C=C3\NC(=O)NC3=O)c2C)ccc1Br`, the IC50 rises from 0.13 µg/mL (≈ 0.402 µM) to 8.38 µg/mL (≈ 22.4 µM) (64-fold).

First: O=S1(=O)C=CC2ON=C(c3ccc(Cl)cc3)C21 (stereo not given)
Second: CCOC(=O)Cc1c(C)nc2c(-c3ccc(Cl)cc3)c[nH]n2c1=O
The IC50 of the first is 1.8-fold lower: 1.11 µg/mL (≈ 4.12 µM) for the first, 1.95 µg/mL (≈ 5.64 µM) for the second.

Compared with `CCOC(=O)Cc1c(C)nc2c(-c3cccc(Br)c3)c[nH]n2c1=O`, `CCC(=O)Oc1cccc2ccc(/C=C/c3ccc4c(c3)OCO4)nc12` is 9.9-fold lower in IC50: 1.69 µg/mL (≈ 4.33 µM) for the first, 0.17 µg/mL (≈ 0.489 µM) for the second.

`COCCNCCCCOc1ccc(Cl)cc1C(C)(C)C` and `CCC(C)NCCCCOc1ccc(Cl)cc1C(C)(C)C` (stereo not given) are within 1.5-fold of each other in IC50: 4.62 µg/mL (≈ 14.7 µM) for the first, 4.49 µg/mL (≈ 14.4 µM) for the second.

`COc1cc([N+](=O)[O-])ccc1NC(=S)Nc1ccc(F)c(Cl)c1` and `COc1cc([N+](=O)[O-])ccc1NC(=S)Nc1ccc(OC(F)F)c(Cl)c1` are within 1.5-fold of each other in IC50: 2.76 µg/mL (≈ 7.76 µM) for the first, 3.41 µg/mL (≈ 8.44 µM) for the second.

Compared with `Cc1ccc(Cl)cc1NC(=O)CC(O)(C(F)(F)F)C(F)(F)F`, `O=C(NCc1ccc(Cl)c(Cl)c1)C(Cl)Cl` is 1.5-fold higher in IC50: 7.04 µg/mL (≈ 20.1 µM) for the first, 10.6 µg/mL (≈ 37.1 µM) for the second.

First: CCCCSc1ccc(NCCC(=O)c2ccco2)cc1
Second: CC(=O)c1ccc(NC(=O)CSc2ccc(F)cc2)cc1
The IC50 of the first is 19-fold lower: 0.42 µg/mL (≈ 1.38 µM) for the first, 7.95 µg/mL (≈ 26.2 µM) for the second.

First: O=C(Nc1ccc(F)c(Cl)c1)C12CC3CCC(CC(C3)C1)C2
Second: Cc1ccc(C(=O)NCCC23CC4CC(CC(C4)C2)C3)cc1
The IC50 of the first is lower: under 0.1 µg/mL for the first, 0.18 µg/mL (≈ 0.605 µM) for the second.

First: CCOc1ccc(NC(=O)CSc2nc3ccc([N+](=O)[O-])cc3s2)cc1
Second: Cc1ccc(NCCC(=O)c2ccc([N+](=O)[O-])cc2)cc1C
The IC50 of the first is 1.9-fold higher: 1.99 µg/mL (≈ 5.11 µM) for the first, 1.06 µg/mL (≈ 3.55 µM) for the second.

`COc1ccc(Cl)cc1C(=O)Nc1ccc(N2CCN(Cc3ccccc3F)CC2)cc1` and `O=C(Nc1ccc2oc(-c3cccc4ccccc34)nc2c1)c1cncc(Br)c1` are within 1.5-fold of each other in IC50: 3.36 µg/mL (≈ 7.4 µM) for the first, 2.72 µg/mL (≈ 6.12 µM) for the second.

`O=C(OCc1ccccc1Cl)C1(O)c2ccccc2-c2ccccc21` and `COc1ccc(-c2[nH]c(-c3ccc([N+](=O)[O-])cc3)nc2-c2ccccc2)cc1` are within 1.5-fold of each other in IC50: 2.76 µg/mL (≈ 7.87 µM) for the first, 2.33 µg/mL (≈ 6.27 µM) for the second.

First: Cc1c(OC(=O)c2cccc([N+](=O)[O-])c2)ccc2c1CCCC2
Second: O=C1c2cccc3cccc(c23)C(=O)N1c1ccc2[nH]c(=O)[nH]c2c1
The IC50 of the first is 12-fold lower: 2.64 µg/mL (≈ 8.48 µM) for the first, 33 µg/mL (≈ 100 µM) for the second.

Molecule `Cc1ccc(-n2cnc3cc(NCc4cccs4)ccc32)cc1` has an IC50 of 2.87 µg/mL (≈ 8.98 µM).

`Cc1ccc(C(=O)CCNc2ccc(F)cc2)cc1` was tested, and the IC50 was > 50 µg/mL (inactive).
In the case of `CC1C(c2ccccc2)=[N+]([O-])C(C)(c2ccc(F)cc2)N1O` (stereo not given), the IC50 is reported as > 50 µg/mL (inactive).
In the case of `Cc1ccc(-c2nc3ccc(Br)cc3c(=O)o2)cc1C`, the IC50 is reported as > 50 µg/mL (inactive).
`COc1ccc(Cc2nc3sc4c(c3c(=O)n2N)CCCC4)cc1` was tested, and the IC50 was > 50 µg/mL (inactive).
With `Cn1c(=O)[nH]c2nnc(-c3ccccn3)nc2c1=O` the IC50 was > 50 µg/mL (inactive).
`Cc1ccc(-c2nnc(SCC(=O)Nc3ccc([N+](=O)[O-])cc3)o2)cc1` was tested, and the IC50 was > 50 µg/mL (inactive).
`COC(=O)c1ccc(COC(=O)c2ccc(Cl)cc2)cc1` was tested, and the IC50 was > 50 µg/mL (inactive).
With `CCOC(=O)C1=C(C)N=c2s/c(=C\c3ccc([N+](=O)[O-])o3)c(=O)n2C1c1ccc(OCC)cc1` (stereo not given) the IC50 was > 50 µg/mL (inactive).
In the case of `O=C(CCN1Cc2ccccc2C1)c1ccc2c(c1)OCCO2`, the IC50 is reported as > 50 µg/mL (inactive).
With `Cc1ccc(OC(=O)c2ccc3nc(C)sc3c2)cc1` the IC50 was > 50 µg/mL (inactive).
